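Five compound concentrations were applied to cells in 96-well plates for 48 hours; endpoints were derived by simple linear interpolation of the resulting dose-response curve. Here, GI50 denotes the concentration required for 50% inhibition of growth.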 The source made the active and inactive calls. Cut-off read from the data, not from the text of the source: active = GI50 up to about 1.1 µM and inactive = higher.
What was measured:
Experiment in all cases: NCI-60 cell line screen, 48 h
SF-268 = tested on: SF-268
OVCAR-8 = tested on: OVCAR-8
HT-29 = tested on: HT-29
PC-3 = tested on: PC-3
HCT-116 = tested on: HCT-116
RPMI-8226 = tested on: RPMI-8226
SK-OV-3 = tested on: SK-OV-3
HOP-62 = tested on: HOP-62
UACC-62 = tested on: UACC-62
M14 = tested on: M14
CCRF-CEM = tested on: CCRF-CEM
SW-620 = tested on: SW-620
SF-295 = tested on: SF-295
786-0 = tested on: 786-0
IGROV-1 = tested on: IGROV-1
HOP-92 = tested on: HOP-92
SK-MEL-2 = tested on: SK-MEL-2
NCI-H522 = tested on: NCI-H522
NCI-H226 = tested on: NCI-H226
Malme-3M = tested on: Malme-3M

| Structure (SMILES) | GI50 (SF-268) | GI50 (OVCAR-8) | GI50 (HT-29) | GI50 (PC-3) | GI50 (HCT-116) | GI50 (RPMI-8226) | GI50 (SK-OV-3) | GI50 (HOP-62) | GI50 (UACC-62) | GI50 (M14) | GI50 (CCRF-CEM) | GI50 (SW-620) | GI50 (SF-295) | GI50 (786-0) | GI50 (IGROV-1) | GI50 (HOP-92) | GI50 (SK-MEL-2) | GI50 (NCI-H522) | GI50 (NCI-H226) | GI50 (Malme-3M) |
| --- | --- | --- | --- | --- | --- | --- | --- | --- | --- | --- | --- | --- | --- | --- | --- | --- | --- | --- | --- | --- |
| COC(=O)C(Cc1ccc2c(c1)CCC2)Cc1ccc2c(c1)CCC2 | 48.6 µM (inactive) | 53.6 µM (inactive) | 29.4 µM (inactive) | 73.3 µM (inactive) | 66.2 µM (inactive) | 26.1 µM (inactive) | > 100 µM (inactive) | > 100 µM (inactive) | > 100 µM (inactive) | 80 µM (inactive) | 32.4 µM (inactive) | > 100 µM (inactive) | 36.6 µM (inactive) | 78.2 µM (inactive) | > 100 µM (inactive) | 31.3 µM (inactive) | 18.4 µM (inactive) | 32.9 µM (inactive) | 42.5 µM (inactive) |  |
| S=c1[nH]c2c(Cl)c(Cl)c(Cl)c(Cl)c2[nH]1 | 12.1 µM (inactive) | 23.2 µM (inactive) | 24 µM (inactive) | 22.2 µM (inactive) | 21.1 µM (inactive) | 3.52 µM (inactive) | 20.1 µM (inactive) | 25.1 µM (inactive) | 15.2 µM (inactive) | 21.4 µM (inactive) | 1.16 µM (inactive) | 19.8 µM (inactive) | 17.5 µM (inactive) | 26.2 µM (inactive) | 14.1 µM (inactive) | 19.5 µM (inactive) |  | 1.2 µM (inactive) |  | 14.9 µM (inactive) |
| CC(C)(C)OC(=O)N1CCc2[nH][nH]c(=O)c2C1 | > 100 µM (inactive) | > 100 µM (inactive) | > 100 µM (inactive) | > 100 µM (inactive) | > 100 µM (inactive) | > 100 µM (inactive) | > 100 µM (inactive) | > 100 µM (inactive) | > 100 µM (inactive) | > 100 µM (inactive) | > 100 µM (inactive) | > 100 µM (inactive) | > 100 µM (inactive) | > 100 µM (inactive) | > 100 µM (inactive) | > 100 µM (inactive) |  | > 100 µM (inactive) | > 100 µM (inactive) | > 100 µM (inactive) |
| [N-]=[N+]=Nc1cc(=O)[nH]nc1-c1ccccc1 | > 100 µM (inactive) | > 100 µM (inactive) | > 100 µM (inactive) | > 100 µM (inactive) | > 100 µM (inactive) | > 100 µM (inactive) | > 100 µM (inactive) | > 100 µM (inactive) | > 100 µM (inactive) | > 100 µM (inactive) | > 100 µM (inactive) | > 100 µM (inactive) | > 100 µM (inactive) | > 100 µM (inactive) | > 100 µM (inactive) | > 100 µM (inactive) |  | > 100 µM (inactive) | > 100 µM (inactive) | > 100 µM (inactive) |
| Cc1ccc(S(=O)(=O)N2C[C@](O)(c3ccccc3)[C@H]2C)cc1 | > 100 µM (inactive) | > 100 µM (inactive) | > 100 µM (inactive) | > 100 µM (inactive) | > 100 µM (inactive) |  | > 100 µM (inactive) | > 100 µM (inactive) | > 100 µM (inactive) | > 100 µM (inactive) | 26.4 µM (inactive) | > 100 µM (inactive) | > 100 µM (inactive) | > 100 µM (inactive) | > 100 µM (inactive) | > 100 µM (inactive) | > 100 µM (inactive) | > 100 µM (inactive) | > 100 µM (inactive) | > 100 µM (inactive) |
| COc1ccc(N2C(=O)C3c4[nH]c5cccc(Cl)c5c4C4CCC(C(C)(C)C)CC4C3C2=O)cc1 (stereo not drawn) | 50.6 µM (inactive) | 84.3 µM (inactive) | > 100 µM (inactive) | > 100 µM (inactive) | > 100 µM (inactive) | > 100 µM (inactive) | 64.9 µM (inactive) | 16.3 µM (inactive) | > 100 µM (inactive) | > 100 µM (inactive) |  | > 100 µM (inactive) | 47.2 µM (inactive) | 31.6 µM (inactive) | > 100 µM (inactive) | 83.2 µM (inactive) | 94.6 µM (inactive) | > 100 µM (inactive) | > 100 µM (inactive) | > 100 µM (inactive) |
| C=C(C)C1CCC2(C)C1CCC1(C)C2CCC2C3(C)C4OC(OC4=O)C(C)(C)C3CCC21C (stereo not drawn) | > 100 µM (inactive) | > 100 µM (inactive) | > 100 µM (inactive) | > 100 µM (inactive) | > 100 µM (inactive) | > 100 µM (inactive) | > 100 µM (inactive) | > 100 µM (inactive) | > 100 µM (inactive) | > 100 µM (inactive) | 80.4 µM (inactive) | > 100 µM (inactive) | > 100 µM (inactive) | > 100 µM (inactive) | > 100 µM (inactive) | > 100 µM (inactive) | > 100 µM (inactive) | 14.6 µM (inactive) | > 100 µM (inactive) |  |
| COC(=O)[C@@H]1N2C(=S)N(c3ccccc3)C(=O)[C@H]2SC1(C)C | > 100 µM (inactive) | > 100 µM (inactive) | > 100 µM (inactive) | > 100 µM (inactive) | > 100 µM (inactive) | > 100 µM (inactive) | > 100 µM (inactive) | > 100 µM (inactive) | > 100 µM (inactive) | > 100 µM (inactive) |  | > 100 µM (inactive) | > 100 µM (inactive) | > 100 µM (inactive) | > 100 µM (inactive) | 55.6 µM (inactive) | > 100 µM (inactive) | > 100 µM (inactive) | > 100 µM (inactive) |  |
| N#CCCN(CCN(CCN(C(=O)Nc1ccccc1)c1ccccc1)C(=O)Nc1ccccc1)C(=O)Nc1ccccc1 | > 100 µM (inactive) | > 100 µM (inactive) |  | 6.85 µM (inactive) | > 100 µM (inactive) | 6.47 µM (inactive) | > 100 µM (inactive) | > 100 µM (inactive) | > 100 µM (inactive) | > 100 µM (inactive) | 1.89 µM (inactive) | > 100 µM (inactive) | > 100 µM (inactive) | > 100 µM (inactive) | 43.9 µM (inactive) | 15.2 µM (inactive) | > 100 µM (inactive) |  | > 100 µM (inactive) |  |
| CC1(C)N=C(N)N=C(N)N1c1cccc(OCCOc2ccc([N+](=O)[O-])cc2)c1 | 5.04 µM (inactive) | 74.6 µM (inactive) | 8.24 µM (inactive) | 0.822 µM (active) | 4.81 µM (inactive) | 16.5 µM (inactive) | > 100 µM (inactive) | > 100 µM (inactive) |  | 34.8 µM (inactive) | 7.76 µM (inactive) | 3.68 µM (inactive) | > 100 µM (inactive) | 4.99 µM (inactive) | 1.96 µM (inactive) | > 100 µM (inactive) | 8.26 µM (inactive) | 3.79 µM (inactive) |  | 20.6 µM (inactive) |
| CCOC(=O)c1cc2c([nH]1)c(OC(C)=O)cc1c2ccn1Cc1ccccc1 | > 100 µM (inactive) | > 100 µM (inactive) | > 100 µM (inactive) | > 100 µM (inactive) | > 100 µM (inactive) | > 100 µM (inactive) | > 100 µM (inactive) | > 100 µM (inactive) | > 100 µM (inactive) | > 100 µM (inactive) | > 100 µM (inactive) | > 100 µM (inactive) | > 100 µM (inactive) | > 100 µM (inactive) | > 100 µM (inactive) | > 100 µM (inactive) | > 100 µM (inactive) |  | > 100 µM (inactive) | > 100 µM (inactive) |
| Cc1cn(C2CC(COCc3ccccc3)N(CCO[Si](C)(C)C(C)(C)C)O2)c(=O)[nH]c1=O (stereo not drawn) | 21.3 µM (inactive) | 15.5 µM (inactive) | 15.4 µM (inactive) | 5.28 µM (inactive) | 16.8 µM (inactive) | 15.1 µM (inactive) | 17.6 µM (inactive) | 17.3 µM (inactive) | 11.9 µM (inactive) | 15 µM (inactive) |  | 15.5 µM (inactive) | 16.4 µM (inactive) | 27.9 µM (inactive) |  | 8.81 µM (inactive) | 16.4 µM (inactive) | 16.2 µM (inactive) |  | 18.2 µM (inactive) |
| Nc1ccc(C(=O)N2CCC[C@H]2CO)c(N)c1 | > 100 µM (inactive) | > 100 µM (inactive) | > 100 µM (inactive) | > 100 µM (inactive) | > 100 µM (inactive) | > 100 µM (inactive) | > 100 µM (inactive) | > 100 µM (inactive) | > 100 µM (inactive) | > 100 µM (inactive) | > 100 µM (inactive) | > 100 µM (inactive) | > 100 µM (inactive) | > 100 µM (inactive) | > 100 µM (inactive) | > 100 µM (inactive) | > 100 µM (inactive) | > 100 µM (inactive) | > 100 µM (inactive) |  |
| Cc1ccc(C2=C(Cl)C(=O)C(c3ccc(C)cc3)=C(Cl)C2=O)cc1 | > 100 µM (inactive) | > 100 µM (inactive) | > 100 µM (inactive) | > 100 µM (inactive) | > 100 µM (inactive) | > 100 µM (inactive) | > 100 µM (inactive) | > 100 µM (inactive) | > 100 µM (inactive) | > 100 µM (inactive) | 83.4 µM (inactive) | > 100 µM (inactive) | > 100 µM (inactive) | > 100 µM (inactive) | > 100 µM (inactive) | > 100 µM (inactive) |  | > 100 µM (inactive) | > 100 µM (inactive) | > 100 µM (inactive) |
| CCCC(=O)NC1=C(Cl)C(=O)c2ccccc2C1=O | 6.92 µM (inactive) | 5.02 µM (inactive) | 8.49 µM (inactive) | 3.23 µM (inactive) | 1.73 µM (inactive) | 1.48 µM (inactive) | 8.67 µM (inactive) | 9.23 µM (inactive) | 2.32 µM (inactive) | 3.13 µM (inactive) | 1.32 µM (inactive) | 1.79 µM (inactive) | 4.99 µM (inactive) | 4.53 µM (inactive) | 5.07 µM (inactive) | 1.82 µM (inactive) | 2.39 µM (inactive) | 1.13 µM (inactive) | 7.78 µM (inactive) |  |

Source: ChEMBL document CHEMBL1201862, “PubChem BioAssay data set” (2004)
